{"source": "patent US20230241024A1", "about": "“METHODS OF TREATING METABOLIC DISORDERS” (Sunovion Pharmaceuticals Inc., priority 2021, published 2023)", "key": {"[1]": {"system": "female Sprague Dawley rats fed on a high-fat powdered diet", "test": "Body weight, food intake, body composition and liver triglycerides, once daily dosing up to 15 days, high-fat diet rats (Example 2.1)", "format": "in vivo, rat", "conditions": "Olanzapine 3 mg/kg po", "procedure": "Body weight and food and water intake were assessed daily.\nAnimals: Seventy-four (2 spares) female Sprague Dawley rats (weight range 200-300 g) were ordered from Charles River, Margate, Kent. Rats were singly housed in cages with sawdust bedding and enrichment at an ambient temperature of 21 ± 2° C. Upon arrival (Thursday), rats were weighed and given wet mash to aid recovery from transport. Rats were weighed the following day and on the Monday of the following week. Animals were maintained on a reverse-phase light-dark cycle (lights off for 8 hours from 10:00-18 :00 h) during which time the room was illuminated by red light. Rats were weighed on the Friday and Monday of the following week. […] Except for 12 animals (Group F), all animals had free access to a high-fat powdered diet (VRF1 plus 20% lard). […] All rats had access to filtered water at all times. The diets were contained in glass feeding jars with aluminum lids (Solmedia Laboratory Suppliers. Romford. Essex). […] Animals were accustomed to these conditions for at least two weeks before experimentation.\nExperimental Procedure: Animals underwent a 3-day baseline run-in period during which time all rats were dosed once a day with vehicle. Dosing was timed to start at approximately 08:45 so that the mid-point was approximately the time of lights out. Animals, food and water were weighed at the time of dosing. Towards the end of the baseline period, animals were weighed (to the nearest 0.1 g using an electronic top-pan balance) and allocated by a statistician. The spare animals were humanely withdrawn from the study.\nDosing (in a randomized order) began at approximately 08:45 h each day (0 h), i.e., the mid-point of dosing is approximately at the time of lights out. Body weight, food and water intake was recorded daily at the time of dosing. All rats were observed before and after dosing and comments on condition were noted as appropriate. On the afternoon of Day 14 (approx. 16:00) animals were fasted to a timed schedule. The experiment ended the following morning on Day 15. On the morning of Day 15, final readings were undertaken 16 hour post-fast (i.e., body weight measurements). Animals were then dosed (as described). Four hours later, a blood sample (1 mL) was taken from the lateral tail vein into tubes containing lithium heparin. […] Animals were then terminated by a Schedule 1 method (exposure to an increasing concentration of C02 with death confirmed by cervical dislocation). A terminal blood sample (circa 4 mL) was taken into an EDTA-coated tube and a single plasma aliquot (approximately 1 mL) was stored frozen (approx. -80° C.) in a clean aliquot tube. The liver was dissected and the caudate lobe removed. Both the caudate lobe and the remaining liver were weighed and stored frozen separately (on dry ice and then transferred to a freezer at approx. -80° C.). The caudate lobe underwent option further analysis of liver triglycerides."}, "[2]": {"system": "female Sprague Dawley rats previously treated with olanzapine", "test": "Body weight, food intake, body composition and liver triglycerides of rats previously treated with olanzapine and switched (Example 2.2)", "format": "in vivo, rat", "procedure": "Rats were singly housed in cages with sawdust bedding and enrichment at an ambient temperature of 21±2° C. Upon arrival (Thursday), rats were weighed and given wet mash to aid recovery from transport. Rats were weighed the following day and the Monday of the following week. Animals were maintained on a reverse-phase light-dark cycle (lights off for 8 h from 10:00-18:00 h) during which time the room was illuminated by red light. Rats were weighed on the Friday and Monday of the following week. […] All animals had free access to a high-fat powdered diet (VRF1 plus 20% lard) and all rats had access to filtered water at all times. The diets were contained in glass feeding jars with aluminum lids (Solmedia Laboratory Suppliers, Romford, Essex). […] Animals were accustomed to these conditions for at least two weeks before experimentation.\nDosing was timed to start at approximately 08:45 so that the mid-point was approximately the time of lights out. Animals, food and water were weighed at the time of dosing. Towards the end of this baseline period, animals were weighed (to the nearest 0.1 g using an electronic top-pan balance) and allocated into 2 weight-matched treatment groups by a Statistician.\nDosing began at approximately 08:45 h each day (0 h), i.e., so the mid-point of dosing was approximately at the time of lights out. This strategy was taken to maximize the impact of the drugs on food intake. Dosing continued for 7 consecutive days and rats were weighed (to the nearest 0.1 g) every day at 0 h. Prior to and at the completion of each dosing session animals were examined and any overt behavioral/physiological effects or other relevant observations regarding the condition of the animals was recorded manually. […] and food intake were assessed daily.\nDosing began at approximately 08:45 h each day (0h), i.e., the mid-point of dosing was approximately at the time of lights out. Body weight, food and water intake was recorded daily at the time of dosing. All rats were observed before and after dosing and comments on condition were noted as appropriate. On the afternoon of Day 14 (approx. 16:00) animals were fasted to a timed schedule. The experiment ended the following morning on Day 15. On the morning of Day 15, final readings were undertaken 16 h post-fast (i.e., body weight measurements). Animals were then dosed (as described). Four hours later, two blood samples (20 µL and 1 mL) were taken from the lateral tail vein into tubes containing lithium heparin. The 20 µL sample was stored frozen (whole blood) prior to determination of HbAlc (Roche Tina-quant A2c Gen 3, Cobas C111). […] Animals were then terminated by a Schedule 1 method (exposure to an increasing concentration of CO2 with death confirmed by cervical dislocation). A terminal blood sample (circa 4 mL) was taken into EDTA-coated tube and a single plasma aliquot (approximately 1 mL) was stored frozen (approx. -80° C.) in a clean aliquot tube. The liver was dissected and the caudate lobe removed. Both the caudate lobe and the remaining liver was weighed and stored frozen separately (on dry ice and then transferred to a freezer at approx. -80° C.). The caudate lobe underwent further analysis of liver triglycerides. Carcasses were stored frozen (approx. -20° C.) for potential body composition analysis. Metabolic parameters including fasting glucose and insulin levels, liver triglycerides and body fat composition were determined at the end of the study."}, "[3]": {"test": "Food effect on the pharmacokinetics of 50 mg tablet (Example 10)", "conditions": "50 mg Compound 1 tablet", "text": "Methods: The study used an open-label randomized 2-period crossover design in 20 healthy volunteers. Subjects were fasted overnight then randomly assigned to 1 of 2 dosing sequences, A ➔ B or B ➔ A, where A was the fasted condition and B was the fed condition. […] The fed and fasted dosing periods were separated by one week. Serial plasma samples from each period were collected for PK analysis.\nSolid phase extraction was used for sample cleanup. Stable isotope-labeled internal standards were used for corresponding analytes. Noncompartment PK parameters were calculated using Phoenix WinNonlin® software."}, "[4]": {"conditions": "Week 1 (Day 1-8), Olanzapine 3 mg/kg po"}, "[5]": {"conditions": "Week 2 (Day 8-13), after olanzapine Day 1-7, 3 mg/kg po"}, "[6]": {"conditions": "Week 2 (Day 8-14), continued Olanzapine 3 mg/kg po"}, "[7]": {"conditions": "from Day 8, after olanzapine Day 1-7, 3 mg/kg po"}}, "data": [{"smiles": "Cc1cc2c(s1)Nc1ccccc1N=C2N1CCN(C)CC1", "note": "[Olanzapine, olanzapine]", "values": [{"measurement": "Fat in carcass % change vs vehicle", "setting": "[1]", "result": 8.8, "unit": "%"}, {"measurement": "Fat in carcass Difference vs vehicle", "setting": "[1]", "result": 1.4, "unit": "%"}, {"measurement": "Fat in carcass, Mean", "setting": "[1]", "result": 16.9, "unit": "%"}, {"measurement": "Fat per rat % change vs vehicle", "setting": "[1]", "result": 12.4, "unit": "%"}, {"measurement": "Fat per rat Difference vs vehicle", "setting": "[1]", "result": 5.2, "unit": "g"}, {"measurement": "Fat per rat, Mean", "setting": "[1]", "result": 47.0, "unit": "g"}, {"measurement": "Liver Total triglycerides Mean", "setting": "[1]", "result": 227.46, "unit": "µmol"}, {"measurement": "Liver Total triglycerides vs vehicle", "setting": "[1]", "result": 85.6}, {"measurement": "Liver triglycerides % vs vehicle", "setting": "[1]", "result": 77.1, "unit": "%"}, {"measurement": "Liver triglycerides, Mean", "setting": "[1]", "result": 25.07, "unit": "µmol/g"}, {"measurement": "Protein in carcass % change vs vehicle", "setting": "[1]", "result": -1.8, "unit": "%"}, {"measurement": "Protein in carcass Difference vs vehicle", "setting": "[1]", "result": -0.38, "unit": "%"}, {"measurement": "Protein in carcass, Mean", "setting": "[1]", "result": 20.46, "unit": "%"}, {"measurement": "Protein per rat % change vs vehicle", "setting": "[1]", "result": 3.5, "unit": "%"}, {"measurement": "Protein per rat Difference vs vehicle", "setting": "[1]", "result": 1.9, "unit": "g"}, {"measurement": "Protein per rat, Mean", "setting": "[1]", "result": 56.9, "unit": "g"}, {"measurement": "Water in carcass % change vs vehicle", "setting": "[1]", "result": -1.4, "unit": "%"}, {"measurement": "Water in carcass Difference vs vehicle", "setting": "[1]", "result": -0.8, "unit": "%"}, {"measurement": "Water in carcass, Mean", "setting": "[1]", "result": 59.9, "unit": "%"}, {"measurement": "Water per rat % change vs vehicle", "setting": "[1]", "result": 3.6, "unit": "%"}, {"measurement": "Water per rat Difference vs vehicle", "setting": "[1]", "result": 5.8, "unit": "g"}, {"measurement": "Water per rat, Mean", "setting": "[1]", "result": 166.5, "unit": "g"}, {"measurement": "Daily food intake % change", "setting": "[1]; Overall (Day 1-13)", "result": 13.6, "unit": "%"}, {"measurement": "Daily food intake Difference", "setting": "[1]; Overall (Day 1-13)", "result": 2.0, "unit": "g/day"}, {"measurement": "Daily food intake Mean", "setting": "[1]; Overall (Day 1-13)", "result": 16.4, "unit": "g/day"}, {"measurement": "Changes in body weights Difference vs vehicle", "setting": "[1]; Overall (Day 1-14)", "result": 21.5, "unit": "g"}, {"measurement": "Changes in body weights Mean", "setting": "[1]; Overall (Day 1-14)", "result": 33.2, "unit": "g"}, {"measurement": "increase in body weight, previously shown in-house in this model", "setting": "[2]; Olanzapine 3 mg/kg po", "result": "4-6%"}, {"measurement": "Averages of daily food intakes, Difference vs Vehicle (A)", "setting": "[2]; Week 1 (Day 1-7), 3 mg/kg po", "result": 1.90, "unit": "g/day"}, {"measurement": "Averages of daily food intakes, Mean", "setting": "[2]; Week 1 (Day 1-7), 3 mg/kg po", "result": 17.21, "unit": "g/day"}, {"measurement": "Changes in body weights Difference vs Vehicle (A)", "setting": "[2]; [4]", "result": 13.07, "unit": "g"}, {"measurement": "Changes in body weights Mean", "setting": "[2]; [4]", "result": 25.48, "unit": "g"}, {"measurement": "Averages of daily food intakes, Difference vs Vehicle (A)", "setting": "[2]; [5]", "result": 1.60, "unit": "g/day"}, {"measurement": "Averages of daily food intakes, Mean", "setting": "[2]; [5]", "result": 16.73, "unit": "g/day"}, {"measurement": "Changes in body weights Difference vs Vehicle (A)", "setting": "[2]; [6]", "result": 7.55, "unit": "g"}, {"measurement": "Changes in body weights Mean", "setting": "[2]; [6]", "result": 16.70, "unit": "g"}, {"measurement": "Fat in carcass, % change vs Vehicle (A)", "setting": "[2]; [7]", "result": 18.3, "unit": "%"}, {"measurement": "Fat in carcass, Difference vs Vehicle (A)", "setting": "[2]; [7]", "result": 2.4, "unit": "%"}, {"measurement": "Fat in carcass, Mean", "setting": "[2]; [7]", "result": 15.8, "unit": "%"}, {"measurement": "Fat per rat, % change vs Vehicle (A)", "setting": "[2]; [7]", "result": 22.7, "unit": "%"}, {"measurement": "Fat per rat, Difference vs Vehicle (A)", "setting": "[2]; [7]", "result": 8.0, "unit": "g"}, {"measurement": "Fat per rat, Mean", "setting": "[2]; [7]", "result": 43.3, "unit": "g"}, {"measurement": "Final carcass weight, % change vs Vehicle (A)", "setting": "[2]; [7]", "result": 4.1, "unit": "%"}, {"measurement": "Final carcass weight, Mean", "setting": "[2]; [7]", "result": 271.9, "unit": "g"}, {"measurement": "Liver triglycerides (µmol total), % vs Vehicle (A)", "setting": "[2]; [7]", "result": 100.4, "unit": "%"}, {"measurement": "Liver triglycerides (µmol/g), % vs Vehicle (A)", "setting": "[2]; [7]", "result": 100.0, "unit": "%"}, {"measurement": "Liver triglycerides, Mean", "setting": "[2]; [7]", "result": 348, "unit": "µmol total"}, {"measurement": "Protein in carcass, % change vs Vehicle (A)", "setting": "[2]; [7]", "result": -2.4, "unit": "%"}, {"measurement": "Protein in carcass, Difference vs Vehicle (A)", "setting": "[2]; [7]", "result": -0.49, "unit": "%"}, {"measurement": "Protein in carcass, Mean", "setting": "[2]; [7]", "result": 20.24, "unit": "%"}, {"measurement": "Protein per rat, % change vs Vehicle (A)", "setting": "[2]; [7]", "result": 1.6, "unit": "%"}, {"measurement": "Protein per rat, Difference vs Vehicle (A)", "setting": "[2]; [7]", "result": 0.9, "unit": "g"}, {"measurement": "Protein per rat, Mean", "setting": "[2]; [7]", "result": 55.0, "unit": "g"}, {"measurement": "Water in carcass, % change vs Vehicle (A)", "setting": "[2]; [7]", "result": -3.6, "unit": "%"}, {"measurement": "Water in carcass, Difference vs Vehicle (A)", "setting": "[2]; [7]", "result": -2.2, "unit": "%"}, {"measurement": "Water in carcass, Mean", "setting": "[2]; [7]", "result": 60.4, "unit": "%"}, {"measurement": "Water per rat, % change vs Vehicle (A)", "setting": "[2]; [7]", "result": 0.3, "unit": "%"}, {"measurement": "Water per rat, Difference vs Vehicle (A)", "setting": "[2]; [7]", "result": 0.6, "unit": "g"}, {"measurement": "Water per rat, Mean", "setting": "[2]; [7]", "result": 163.9, "unit": "g"}]}, {"smiles": "NC[C@@H]1OCCc2ccsc21", "note": "[metabolite]", "values": [{"measurement": "geometric mean ratio for AUC0-∞ (fed/fasted)", "setting": "[3]", "result": 98.29, "unit": "%"}, {"measurement": "geometric mean ratio of Cmax (fed/fasted)", "setting": "[3]", "result": 94.77, "unit": "%"}, {"measurement": "ratio of N-desmethyl active metabolite to parent Compound 1, fed versus fasted", "setting": "[3]", "result": "no change"}]}]}
